One data set deals with human spermatozoa. Put plainly: Internal sperm pH detection with BCECF. Type of data set: cell-based. The conditions noted are these: FIG. 6, 10 and 20 μM. As to the method: A series of experiments was performed to determine the mechanism of action of the compounds described herein. The experiments were carried out as described in O'Rand and Widgren, “Loss of Calcium in Human Spermatozoa via EPPIN, the Semenogelin Receptor,” Biology of Reproduction, (2012) 86(2):55, 1-7.
The AM ester derivative of the pH-sensitive dye BCECF (5 μM; Molecular Probes) was used to detect changes in the pH in spermatozoa treated with SEMG1. Spermatozoa were loaded with BCECF-AM for 30 min in bovine serum albumin-free medium, centrifuged to remove extracellular dye, and resuspended in M16M. Changes to 1.13105-0.93105 spermatozoa/well in 50 μl of M16M at 378 C after treatment with 3.2 μM SEMG1 were monitored in a BioTek (Winookski, Vt.) Synergy2 Multiplatform automated plate reader (with heater and shaker); wells were excited using a 485/20 filter and emission read with a 528/20 filter. Fluorescence was read immediately and recorded every 10 sec; readings for each time point were normalized, averaged, and expressed as percentages of decrease in relative fluorescent units. Data from three ejaculate samples are reported.

A short description of data set [1]: In vitro absorption, Caco-2 permeability and recovery. The format is in vitro ADME. Conditions: human, Caco-2; read-out: permeability to Caco-2 cells. As to the method:
(§1) The in vitro absorption was measured using methods described in Hidalgo, I. J. et al. (1989), Gastroenterology, 96: 736-749.
(§2) The apparent permeability coefficient (Papp) of the test compound was calculated as follows:
(§3) [formula] where VR is the volume of the receiver chamber. CR, end is the concentration of the test compound in the receiver chamber at the end time point, Δt is the incubation time and A is the surface area of the cell monolayer. CD, mid is the calculated mid-point concentration of the test compound in the donor side, which is the mean value of the donor concentration at time 0 minute and the donor concentration at the end time point. CR, mid is the mid-point concentration of the test compound in the receiver side, which is one half of the receiver concentration at the end time point. Concentrations of the test compound were expressed as peak areas of the test compound.
(§4) The recovery of the test compound was calculated as follows: […]
(§5) where VD and VR are the volumes of the donor and receiver chambers, respectively. CD,end is the concentration of the test compound in the donor sample at the end time point. CR,end is the concentration of the test compound in the receiver sample at the end time point. CD0 is the concentration of the test compound in the donor sample at time zero. Concentrations of the test compound are expressed as peak areas of the test compound. […]

In a further data set the test system is Caco-2 cells. The data set is described as above. Type of data set: in vitro ADME. As to the method: as §1, §2, §3, §4, §5
A further data set has as its target T1, recombinant human EPPIN (Homo sapiens, UniProt O95925).
T1 construct: His-tagged (FLAG tag also stated); E. coli M15[pREP-4], Ni-NTA purified; AlphaScreen with anti-EPPIN S21C antibody
Put plainly: AlphaScreen epitope assay: inhibition of anti-EPPIN (S21C, C-terminal domain) antibody binding to histidine-tagged recombinant human EPPIN. Conditions: Figure 2; TZ4_121 concentration-response, percent of control value vs. log concentration; His-tagged rhEPPIN (E. coli, lacks part of N-terminal secretory signal) on NTA-donor beads, anti-EPPIN S21C on protein A-acceptor beads; spread printed +/- 10.4. The text has this: Two assays for high throughput screening (HTS) of compounds have been established and validated. In one embodiment, these assays are based on an adaptation of the AlphaScreen™ assay developed by PerkinElmer (Waltham, Mass.). In the AlphaScreen™ (amplified luminescent proximity homogeneous assay) assay donor and acceptor beads (˜200 nm) are employed to hold interacting protein molecules. When the interacting protein molecules bind (for example EPPIN {on the donor bead} and anti-EPPIN {on the acceptor bead}), singlet state oxygen molecules diffuse from the donor bead to the acceptor bead (˜4 μsec) and fluorophores subsequently emit light at 520-620 nm. In the primary compound screen, histidine-tagged recombinant human EPPIN is attached to NTA-donor beads and anti-EPPIN (S21C; against the EPPIN C-terminal domain) is attached to protein A-acceptor beads. This epitope specific assay gives strong and stable binding between EPPIN and the antibody. […]
A general note: Bead proximity is the source of the signal in Alpha formats.

The nature of data set [2]: In vitro toxicity, cell viability. The format is cell-based. On the procedure:
The percent of control activity was calculated by comparing the fluorescence reading in the presence of test compound to that in the absence of a test (control) compound. Subsequently, the percent of inhibition was calculated by subtraction of the percent of control value from 100. IC50 values were determined by non-linear regression analysis of the concentration-response curves. These parameters are obtained by Hill equation curve fitting. See, for example, Nociari, M. M. et al. (1998), J. Immunol. Meth., 213: 157-167.

The source of these data is US10472334B2, “Small molecules for inhibiting male fertility” (The University of North Carolina at Chapel Hill, priority 2014, dated 2019).

Like-named read-outs stand apart in the source and are kept apart here.

One may read the IC50 as the concentration needed to halve the response being measured.

T1 sequence (O95925 22-133): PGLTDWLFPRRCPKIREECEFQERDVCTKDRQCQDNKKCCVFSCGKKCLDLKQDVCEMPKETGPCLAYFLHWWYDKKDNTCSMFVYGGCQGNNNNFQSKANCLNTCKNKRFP

Take `CCOC(=O)CSc1nc(NNC(=O)OC)nc(Nc2ccc(NC(=O)OC)c(O)c2)n1` [TZ4_121, [4-(3-Hydroxy-4-methoxycarbonylamino-phenylamino)-6-(N′methoxycarbonyl-hydrazino)-1,3,5-triazin-2-ylsulfanyl]-acetic acid ethyl ester]: the “change in internal sperm pH” value in the data set on human spermatozoa was “significant decrease in pH”. Besides, the Papp in data set [1] stood at 0.2 ×10⁻⁶ cm/s. Besides, in the data set on Caco-2 cells, the “Recovery from the permeability assay” value is on record as 93%. Moreover, the IC50 at recombinant human EPPIN was 38.2 µM; in data set [2] (FIG. 2, read-out: cell viability IC50), ~17 µM; in data set [2] (read-out: In vitro toxicology IC50), ~20 µM.
